Test results from US7279444B2, “Substituted benzoylpyrazoles” (Bayer CropScience GmbH, priority 1999, dated 2007).
Marks after values point to notes of the source that are not given here.

tested on: not given; assay: not given; details: not given

SMILES | melting point [°C]
COC(=O)c1ccc(Cl)c(Cn2nc(C(F)(F)F)n(C)c2=O)c1Cl [IV-2, 4-methyl-5-trifluoromethyl-2-(2,6-dichloro-3-methoxycarbonyl-benzyl)-2,4-dihydro-3H-1,2,4-triazol-3-one] | 109
Cn1c(C(F)(F)F)nn(Cc2c(Cl)ccc(C(=O)O)c2Cl)c1=O [III-3, 4-methyl-5-trifluoromethyl-2-(2,6-dichloro-3-carboxy-benzyl)-2,4-dihydro-3H-1,2,4-triazol-3-one] | 207

tested on: not listed separately; assay: log P by HPLC on reversed-phase column (C 18), acidic range; format: physicochemical; details: not given
Procedure: Temperature: 43° C. […] The log P values given in Table 3 were determined in accordance with EEC Directive 79/831 Annex V.A8 by HPLC (High Performance Liquid Chromatography) on a reversed-phase column (C 18). Temperature: 43° C. […] The log P values given in Tables 4 were determined in accordance with EEC Directive 79/831 Annex V.A8 by HPLC (High Performance Liquid Chromatography) on a reversed-phase column (C 18). Temperature: 43° C.

SMILES | logP
CCn1ncc(C(=O)c2ccc(C(F)(F)F)cc2Cn2nc(SC)n(C)c2=O)c1OCc1ccc(Cl)cc1 [ID-39] | logP = 3.78^a)
CCOC(=O)c1ccc(C(F)(F)F)cc1Cn1nc(OCC(F)(F)F)n(C)c1=O [IV-93] | logP = 3.45^a)
CCn1nc(C)c(C(=O)c2ccc(Cl)c(Cn3nc(OC)n(C)c3=O)c2Cl)c1O [Example 43] | logP = 1.71^a)
CCOC(=O)c1ccc(Br)cc1Cn1nc(CC)n(OCC)c1=O [IV-34] | logP = 3.24^a)
CCn1ncc(C(=O)c2ccc(C(F)(F)F)cc2Cn2nc(SC)n(C)c2=O)c1OCc1ccc(C#N)cc1 [ID-37] | logP =3.06^a)
CCn1ncc(C(=O)c2ccc(C(F)(F)F)cc2Cn2nc(SC)n(C)c2=O)c1OS(=O)(=O)c1ccc(C)cc1 [ID-10] | logP = 3.73^a)
CCn1ncc(C(=O)c2ccc(C(F)(F)F)cc2Cn2nc(SC)n(C)c2=O)c1OCc1ccc([N+](=O)[O-])cc1 [ID-42] | logP = 3.26^a)
Cc1nn(C)c(O)c1C(=O)c1ccc(Cl)c(CN2CCCN(C)C2=O)c1Cl [ID-4] | logP = 1.50^a)
CCOc1nn(Cc2cc(C(F)(F)F)ccc2C(=O)c2cnn(CC)c2OCc2ccc(F)cc2)c(=O)n1C [ID-21] | logP = 3.49^a)
CCOC(=O)c1ccc(F)cc1Cn1nc(N(C)C)n(C)c1=O [IV-94] | logP = 2.21^a)
CCOC(=O)c1ccc(C(F)(F)F)cc1Cn1nc(SC)n(C)c1=O [IV-49] | logP = 3.02^a)
COC(=O)c1ccc(Cl)c(Cn2nc(C)n(C)c2=O)c1Cl [IV-13] | logP = 1.65^a)
COC(=O)c1ccc(Cl)c(Cn2nc(SC)n(C3CC3)c2=O)c1Cl [IV-19] | logP = 2.70^a)
Cc1nn(Cc2c(Cl)ccc(C(=O)c3cnn(C)c3O)c2Cl)c(=O)n1C [Example 58] | logP = 1.19^a)
CCOC(=O)c1ccc(S(C)(=O)=O)cc1CN1C(=O)CCC1=O [IV-33] | logP = 1.53^a)
CCOC(=O)c1ccc(Br)cc1Cn1nc(SC)n(C)c1=O [IV-80] | logP = 2.86^a)
CCn1ncc(C(=O)c2ccc(Cl)c(Cn3nc(SC)n(C)c3=O)c2Cl)c1O [Example 18] | logP = 1.91^a)
CCn1ncc(C(=O)c2cc(-n3nc(C(F)(F)F)n(C)c3=O)ccc2C(F)(F)F)c1O [Example 13] | logP = 2.83^a)
CCN1CCN(Cc2c(Cl)ccc(C(=O)c3cnn(CC)c3O)c2Cl)C1=O [ID-56] | logP = 1.88^a)
CCOc1nn(Cc2c(Cl)ccc(C(=O)c3c(C)nn(CC)c3O)c2Cl)c(=O)n1C [Example 42] | logP = 2.02^a)
CCN1CCN(Cc2c(Cl)ccc(C(=O)c3c(C)nn(C(C)(C)C)c3O)c2Cl)C1=O [ID-58] | logP = 3.15^a)

SMILES | logP
CCn1ncc(C(=O)c2ccccc2-n2nc(C(F)(F)F)n(C)c2=O)c1O [Example 15] | logP = 1.95^a)
CCn1ncc(C(=O)c2ccc(Cl)c(Cn3nc(C4CC4)n(C)c3=O)c2Cl)c1O [Example 26] | (IB)logP = 1.82^a)
CCOn1c(CC)nn(Cc2c(Cl)ccc(C(=O)c3cnn(CC)c3O)c2Cl)c1=O [Example 38] | (IB)logP = 2.16^a)
CCn1nc(C)c(C(=O)c2ccc(Cl)c(CN3CCN(C)C3=O)c2Cl)c1O [ID-52] | logP = 1.56^a)
COC(=O)c1ccc(Cl)c(Cn2nc(N(C)C)n(C3CC3)c2=O)c1Cl [IV-21] | logP = 2.42^a)
CCOC(=O)c1ccc([N+](=O)[O-])cc1Cn1nc(SC)n(C)c1=O [IV-46] | logP = 2.82^a)
CCn1ncc(C(=O)c2ccc(Cn3nc(SC)n(C)c3=O)c(OC)c2[N+](=O)[O-])c1O [Example 60] | logP = 1.92^a)
CCn1ncc(C(=O)c2ccc(C(F)(F)F)cc2Cn2nc(SC)n(C)c2=O)c1OCC(=O)c1ccc(Cl)cc1 [ID-47] | logP = 3.64^a)
CCOc1c(C(=O)c2ccc(C(F)(F)F)cc2Cn2nc(OCC)n(C)c2=O)cnn1CC [ID-14] | logP = 2.82^a)
CCn1ncc(C(=O)c2ccc(Cl)c(Cn3ncn(C)c3=O)c2Cl)c1O [Example 25] | logP = 1.28^a)
Cc1nn(C(C)(C)C)c(O)c1C(=O)c1ccc(Cl)c(Cn2nc(C)n(C)c2=O)c1Cl [Example 50] | logP = 2.53^a)
CCOc1nn(Cc2cc(C(F)(F)F)ccc2C(=O)c2cnn(CC)c2OCc2ccc(Cl)c(Cl)c2)c(=O)n1C [ID-23] | logP = 4.26^a)
CCOC(=O)c1ccc(Br)c(Cn2nc(Br)n(C)c2=O)c1 [IV-39] | logP = 2.64^a)
COC(=O)c1ccc(Cl)c(Cn2nc(OC(C)C)n(C3CC3)c2=O)c1Cl [IV-17] | logP = 3.08^a)
Cn1ncc(C(=O)c2ccc(Cl)c(Cn3nc(Br)n(C)c3=O)c2Cl)c1O [Example 40] | logP = 1.53^a)
CCOC(=O)c1ccc(F)cc1Cn1nc(OCC)n(C2CC2)c1=O [IV-98] | logP = 2.89^a)
CCOc1nn(Cc2cc(I)ccc2C(=O)OC)c(=O)n1C [IV-116] | logP = 2.68^a)
COC(=O)c1ccc(Cl)c(Cn2nc(C)n(C3CC3)c2=O)c1Cl [IV-20] | logP = 1.97^a)
CCOC(=O)c1ccc([N+](=O)[O-])cc1Cn1nc(OCC)n(C2CC2)c1=O [IV-45] | logP = 2.42^a)
CCn1ncc(C(=O)c2ccc(Cl)c(Cn3nc(OC)n(C4CC4)c3=O)c2Cl)c1O [Example 31] | (IB)logP = 1.99^a)

same assay, conditions: marked a): acidic range, 0.1% aqueous phosphoric acid/acetonitrile gradient, HPLC reversed-phase C 18, 43° C.; Table 1

SMILES | logP
CCOc1nn(Cc2cc(C(F)(F)F)ccc2C(=O)c2cnn(CC)c2O)c(=O)n1C [Example 2] | logP = 2.34^a)
CCn1ncc(C(=O)c2ccc(C(F)(F)F)cc2Cn2nc(SC)n(C)c2=O)c1O [Example 3] | logP = 2.22^a)

tested on: weeds; assay: Pre-emergence test, activity against weeds; format: in vivo; details: soil sprayed about 24 hours after sowing, rated after three weeks
Procedure: (§1) Pre-Emergence Test Solvent: 5 parts by weight of acetone Emulsifier: 1 part by weight of alkylaryl polyglycol ether To produce a suitable preparation of active compound, 1 part by weight of active compound is mixed with the stated amount of solvent, the stated amount of emulsifier is added and the concentrate is diluted with water to the desired concentration. Seeds of the test plants are sown in normal soil. After about 24 hours, the soil is sprayed with the preparation of active compound such that the particular amount of active compound is applied per unit area. The concentration of the spray liquor is chosen such that the particular amount of active compound desired is applied in 1000 liters of water per hectare. After three weeks, the degree of damage to plants is rated in % damage in comparison to the development of the untreated control. The figures denote: • 0%=no effect (like untreated control) • 100%=total destruction

SMILES | activity against weeds (degree of damage)
CCOc1nn(Cc2cc(C(F)(F)F)ccc2C(=O)c2cnn(CC)c2O)c(=O)n1C [Example 2] | strong activity
CCn1ncc(C(=O)c2ccc(C(F)(F)F)cc2Cn2nc(SC)n(C)c2=O)c1O [Example 3] | strong activity

tested on: crop plants such as, for example, corn; assay: Pre-emergence test, tolerance by crop plants; format: in vivo; details: rated after three weeks
Procedure: as §1

SMILES | tolerance by crop plants
CCOc1nn(Cc2cc(C(F)(F)F)ccc2C(=O)c2cnn(CC)c2O)c(=O)n1C [Example 2] | tolerated well
CCn1ncc(C(=O)c2ccc(C(F)(F)F)cc2Cn2nc(SC)n(C)c2=O)c1O [Example 3] | tolerated well

tested on: weeds; assay: Post-emergence test, activity against weeds; format: in vivo; details: test plants of 5-15 cm sprayed, rated after three weeks
Procedure: Solvent: 5 parts by weight of acetone
Emulsifier: 1 part by weight of alkylaryl polyglycol ether
To produce a suitable preparation of active compound, 1 part by weight of active compound is mixed with the stated amount of solvent, the stated amount of emulsifier is added and the concentrate is diluted with water to the desired concentration.
Test plants of a height of 5-15 cm are sprayed with the preparation of active compound such that the particular amounts of active compound are applied per unit area. The concentration of the spray liquor is chosen such that the particular amounts of active compound desired are applied in 10001 of water/ha.
After three weeks, the degree of damage to the plants is rated in % damage in comparison to the development of the untreated control.
• 0%=no effect (like untreated control) • 100%=total destruction

SMILES | activity against weeds (degree of damage)
CCOc1nn(Cc2cc(C(F)(F)F)ccc2C(=O)c2cnn(CC)c2O)c(=O)n1C [Example 2] | strong activity
CCn1ncc(C(=O)c2ccc(C(F)(F)F)cc2Cn2nc(SC)n(C)c2=O)c1O [Example 3] | strong activity
